In article PMC12481576, “Barbituric Acid Derivatives as Covalent Inhibitors of Leishmania braziliensis Dihydroorotate Dehydrogenase” (Journal of Medicinal Chemistry, 2025):
Read-outs that look alike come from different tables or passages of the source. Values belong to the molecule of their own block, whether it stands above or below them.

Experiments:
[1] = Parallel artificial membrane permeability assay (PAMPA); conditions: PBS pH 7.4/7.4, 6h at room temperature; for recovery at 6 h, 10 µM: PAMPA; for recovery at 6 h, 10 µM / Avg Log Pe (cm/sec) / Avg Pe: 10µM; for Pe (nm/sec) n=1: replicate n=1; for Pe (nm/sec) n=1 / Pe (nm/sec) n=2: 10µM (5% DMSO), LC-MS/MS; for Pe (nm/sec) n=2: replicate n=2
Method: Solutions of the compounds were prepared in duplicate by diluting the stock solutions (10 mM) in phosphate buffered saline (PBS) pH 7.4 at a final concentration of 10 μM (5% DMSO). The solutions diluted in PBS pH 7.4 were then added to the donor portion of the plate (300 μL/well), while in the acceptor portion PBS pH 7.4 (200 μL/well) was added. The two portions of the plate were then coupled, and the system was incubated for 6 h at room temperature. Samples of the initial donor solution (T0) were collected at the beginning (T0) and stored at 5 °C. The final concentrations of compounds in the donor, acceptor and T0 wells were quantified by LC-MS/MS.

LbDHODH = LbDHODH (Leishmania braziliensis, UniProt E9AI53); assay: biochemical; conditions: for IC50: LbDHODH; for activity at 100 µM: LbDHODH remaining activity, compound 100 μM
Method: To assess the ability of compounds 2a–2i to inhibit LbDHODH via covalent bond formation with Cys^131, we initially screened them at a concentration of 100 μM under two conditions: with and without a 4-h preincubation with the enzyme.
The experiments were performed in a 96-well microplate reader (SpectraMax Plus 384, Molecular Devices, USA), containing the […] of the buffer 60 mM DCIP, 50 mM Tris pH 8.15, 150 mM KCl, 0.1% Triton X-100, 50 μM DHO and 10 μM of LbDHODH at 165 nM. The reaction was monitored every 3 s at 610 nm over a period of 60 s, in triplicate, for the control and each concentration of the inhibitor. All assays were performed without incubation (0h) and with 4-h preincubation of the inhibitor with LbDHODH, using 5% DMSO (v/v) as control. […]. […] The resulting kobs values were plotted as a function of inhibitor concentration, and the data in the initial linear region was fit to determine the slope, which is kinact/KI. All regressions were performed with GraphPad Prism 9.

[2] = mouse liver microsomes; for Raw data: analyte peak area, T=0: 0 min; for Raw data: analyte peak area, T=0 / Raw data: analyte peak area, T=5 / Raw data: analyte peak area, T=10 / Raw data: analyte peak area, T=20 / Raw data: analyte peak area, T=30 / Raw data: analyte peak area, T=60: raw LC-MS area; for Raw data: analyte peak area, T=10: 10 min; for Raw data: analyte peak area, T=30: 30 min; for Raw data: analyte peak area, T=60: 60 min
in vitro = conditions: liver microsomes, pH 7.4, % Remaining, 1 µM; for remaining at 10 min, 1 µM: T=10 min; for remaining at 1 h, 1 µM: T=60 min, 60 min
HsDHODH = molecular target: T1, HsDHODH (Homo sapiens, UniProt Q02127); assay: Selectivity assay: HsDHODH single-dose inhibition (DCIP reduction); format: biochemical; conditions: HsDHODH remaining activity, 100 μM
T1 construct: made in house
Method: […]. This finding highlights the potential of barbituric acid derivatives as selective inhibitors of LbDHODH.
Human DHODH expression and purification were conducted following a protocol previously established in our laboratory. The purification was carried out by affinity chromatography on a Ni-NTA Agarose column (Qiagen[…] Cat. No. 30210). […] The reaction was performed in triplicate, initiated by adding 195 μL of reaction buffer to 5 μL of HsDHODH protein solution for a final concentration of 20 nM enzyme. As a blank, 195 μL of reaction buffer was added to 5 μL of Buffer A. The reaction was monitored at 610 nm every 3 s over 60 s. As a control, 5 μL of enzyme was added to 195 μL of reaction medium without compound. Enzymatic velocity was calculated, and the percentage of relative enzymatic activity was determined relative to the control.

[3] = pH 7.4, % Recovery n=1, replicate n=1
[4] = pH 7.4, % Recovery n=2, replicate n=2
[5] = pH 7.4, Avg % Recovery, average of n=2
[6] = mouse, n=1, mouse liver microsomes, n=1
[7] = mouse, n=2, mouse liver microsomes, n=2

Sequence of LbDHODH (E9AI53 entry or part of it): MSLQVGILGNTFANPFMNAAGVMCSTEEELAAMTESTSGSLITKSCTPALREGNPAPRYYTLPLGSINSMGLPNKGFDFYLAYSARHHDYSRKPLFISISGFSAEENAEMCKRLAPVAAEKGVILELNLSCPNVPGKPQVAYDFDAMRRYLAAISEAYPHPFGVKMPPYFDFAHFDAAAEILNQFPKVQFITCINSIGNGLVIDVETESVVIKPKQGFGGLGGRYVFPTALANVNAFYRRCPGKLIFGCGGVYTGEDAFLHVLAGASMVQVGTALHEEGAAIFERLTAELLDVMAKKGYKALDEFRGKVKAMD
T1 sequence (Q02127 whole entry): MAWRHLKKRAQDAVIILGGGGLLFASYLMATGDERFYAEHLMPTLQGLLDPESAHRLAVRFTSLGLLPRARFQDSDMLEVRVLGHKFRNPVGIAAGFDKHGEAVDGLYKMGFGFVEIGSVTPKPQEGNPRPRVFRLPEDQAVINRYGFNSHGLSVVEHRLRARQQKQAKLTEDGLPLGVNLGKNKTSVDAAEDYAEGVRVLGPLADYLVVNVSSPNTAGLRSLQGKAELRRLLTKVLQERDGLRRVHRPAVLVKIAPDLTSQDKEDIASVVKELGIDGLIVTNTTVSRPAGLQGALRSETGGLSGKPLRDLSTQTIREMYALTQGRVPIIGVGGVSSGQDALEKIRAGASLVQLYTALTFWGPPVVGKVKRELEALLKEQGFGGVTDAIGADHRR

IC50 (LbDHODH; IC50 4 h, 4-h preincubation): 27 ± 1 µM | activity at 100 µM (LbDHODH; 4-h preincubation, read-out: single dose (4 h) % activity): 27 ± 2% | activity at 100 µM (LbDHODH; without preincubation, read-out: single dose (0 h) % activity): 35 ± 4% | IC50 (LbDHODH; without preincubation, read-out: IC50 0 h): 57 ± 2 µM
SMILES: O=C(O)c1cc(=O)[nH]c(=O)[nH]1 [Orotate, orotate]

activity at 100 µM (HsDHODH; 4-h incubation, read-out: Single dose (4h) % activity): 0.39 ± 0.04% | activity at 100 µM (HsDHODH; without incubation, read-out: Single dose (0h) % activity): 0.6 ± 0.1%
SMILES: C/C(O)=C(\C#N)C(=O)Nc1ccc(C(F)(F)F)cc1 [Teriflunomide, reference compound]

The remaining lines, values behind:

SMILES: NC(=O)N1c2ccccc2C=Cc2ccccc21 [Carbamazepine]
recovery at 6 h, 10 µM [1, 3]: 100% | recovery at 6 h, 10 µM [1, 4]: 92.5% | recovery at 6 h, 10 µM [1, 5]: 96.3% | Avg Log Pe (cm/sec) ([1]; average of n=2): -5.1 cm/sec | Avg Pe ([1]; average of n=2): 7.83 ×10⁻⁶ cm/s | Pe (nm/sec) n=1 [1]: 80.3 nm/s | Pe (nm/sec) n=2 [1]: 76.4 nm/s

SMILES: NS(=O)(=O)c1cc(C(=O)O)c(NCc2ccco2)cc1Cl [Furosemide]
recovery at 6 h, 10 µM [1, 3]: 89.7% | recovery at 6 h, 10 µM [1, 4]: 91.4% | recovery at 6 h, 10 µM [1, 5]: 90.6% | Avg Pe ([1]; average of n=2): 4.97e-05 ×10⁻⁶ cm/s | Pe (nm/sec) n=1 [1]: 0.000533 nm/s | Pe (nm/sec) n=2 [1]: 0.000461 nm/s

SMILES: CC(C)NCC(O)COc1cccc2ccccc12 (centres unmarked) [Propranolol]
Raw data: analyte peak area, T=0 ([2]; replicate 1 (left block)): 97333 | Raw data: analyte peak area, T=0 ([2]; replicate 2 (right block)): 94436 | % Remaining, T=5 min, n=1 ([2]; 1 µM, 5 min, n=1): 58.1% | % Remaining, T=20 min, n=1 ([2]; 1 µM, 20 min, n=1): 31.9% | Raw data: analyte peak area, T=5 ([2]; 5 min, replicate 1 (left block)): 56345 | Raw data: analyte peak area, T=5 ([2]; 5 min, replicate 2 (right block)): 55807 | Raw data: analyte peak area, T=10 ([2]; replicate 1 (left block)): 45227 | Raw data: analyte peak area, T=10 ([2]; replicate 2 (right block)): 43475 | Raw data: analyte peak area, T=20 ([2]; 20 min, replicate 1 (left block)): 29264 | Raw data: analyte peak area, T=20 ([2]; 20 min, replicate 2 (right block)): 29449 | Raw data: analyte peak area, T=30 ([2]; replicate 1 (left block)): 21377 | Raw data: analyte peak area, T=30 ([2]; replicate 2 (right block)): 25558 | Raw data: analyte peak area, T=60 ([2]; replicate 1 (left block)): 15713 | Raw data: analyte peak area, T=60 ([2]; replicate 2 (right block)): 15931 | remaining at 5 min, 1 μM (in vitro; male, CD1, mouse, T=5 min, n=2, mouse liver microsomes, 5 min, n=2): 52.5% | remaining at 10 min, 1 µM (in vitro; [6]): 46.8% | remaining at 10 min, 1 µM (in vitro; [7]): 43.5% | remaining at 20 min, 1 µM (in vitro; mouse, T=20 min, n=2, mouse liver microsomes, 20 min, n=2): 31.2% | remaining at 0.5 h, 1 µM (in vitro; mouse, T=30 min, n=1, mouse liver microsomes, 30 min, n=1): 22.7% | remaining at 1 h, 1 µM (in vitro; [6]): 16% | remaining at 1 h, 1 µM (in vitro; [7]): 15.5% | recovery at 6 h, 10 µM [1, 3]: 85.7% | recovery at 6 h, 10 µM [1, 4]: 82.4% | recovery at 6 h, 10 µM [1, 5]: 84% | Avg Log Pe (cm/sec) ([1]; average of n=2): -5.2 cm/sec | Avg Pe ([1]; average of n=2): 6.15 ×10⁻⁶ cm/s | Pe (nm/sec) n=1 [1]: 53.6 nm/s | Pe (nm/sec) n=2 [1]: 69.4 nm/s
